What was measured:
Assay type in all cases: in vivo, male Donryu strain rats
Shay's ulcer in rats = assay: Shay's ulcer (pylorus ligation) in rats; conditions: for Ulcer index: total ulcerated area in forestomach
Protocol: Shay's ulcer: Groups of ten male Donryu strain rats each weighing 210 to 230 g were deprived of food for 48 hours. The pylorus of each rat was ligated according to the method of Shay et al [Gastroenterology, 5, 43-61 (1945)]. Each of the animals was allowed to stand abstained from food and water for further 14 hours and then sacrificed to remove its stomach. After collection of the gastric juice, the ulcerated area (mm^2) in the forestomach of each rat was measured under a dissecting microscope (10×). The total area (mm^2) of all the lesions of each rat was indicated as an ulcer index. Test medicine samples were given orally immediately after the pylorus ligation.

[1] = tested on: Histamine-induced ulcer in rats; assay: Histamine-induced ulcer in rats; conditions: 300 mg/kg P.O., histamine phosphate 300 mg/kg i.p.; for Ulcer index: total lesion length, control 24.1 ± 4.7
Protocol: Histamine-induced ulcer: Groups of ten male Donryu strain rats each weighing 210 to 230 g were deprived of food for 48 hours and then administered intraperitoneally with histamine phosphate (300 mg/kg). Four hours after the administration, each of the animals was sacrificed under ether anesthesia, followed by removal of its stomach and immersion in a 1% formalin solution for ten minutes. The stomach which had been semi-fixed was incised along the greater curvature, and the length (mm) of each lesion was measured under a dissecting microscope (10×). The total length (mm) of all the lesions of each rat was indicated as an ulcer index. Test medicine samples were given orally before the histamine administration.

Stress ulcer in rats = assay: Stress ulcer (restraint and water immersion) in rats; conditions: for Ulcer index: total lesion length in glandular portion, control 15.2 ± 3.2
Protocol: Stress ulcer: Groups of ten male Donryu strain rats each weighing 240 to 260 g were placed in a stress cage which served to immobilize the animals therein and then immersed in a water bath of 23° C. on a level with the xiphoid process according to the method of K. Takagi et al [Jap. J. Pharmac., 18 (9), 9-19 (1968)], thereby imposing stress on each rat. Seven hours after the immersion, each of the animals was withdrawn from the water bath and immediately sacrificed by a blow on the head, followed by removal of the stomach of each rat. The stomach was slightly inflated by injecting a 1% formalin solution and then immediately immersed in a 1% formalin solution, followed by incising the stomach along its greater curvature to measure the length (mm) of each lesion in the glandular portion under a dissecting microscope (10×). The total length (mm) of all the lesions of each rat was indicated as an ulcer index. Test medicine samples were given orally ten minutes before the immersion in water.

[2] = tested on: Indomethacin-induced ulcer in rats; assay: Indomethacin-induced ulcer in rats; conditions: 300 mg/kg P.O., indomethacin 25 mg/kg s.c.; for Ulcer index: total lesion length, control 16.3 ± 2.4
Protocol: Indomethacin-induced ulcer: Groups of ten male Donryu strain rats each weighing 200 to 215 g were deprived of food for 24 hours. Then, the pylorus was ligated under ether anethesia, after which indomethacin was administered subcutaneously in an amount of 25 mg/kg to each rat. Seven hours after the administration, each of the animals was sacrificed under ether anethesia to remove its stomach, followed by immersion in a 1% formalin solution for ten minutes. The stomach which had been semi-fixed was incised along its greater curvature, and the length (mm) of each lesion formed in the mucous membrane was measured under a dissecting microscope (10×). The total length (mm) of all the lesions of each rat was indicated as an ulcer index. Test medicine samples were given orally ten minutes before the pylorus logation.

[3] = tested on: Aspirin-induced ulcer in rats; assay: Aspirin-induced ulcer in rats; conditions: 1,000 mg/kg P.O., aspirin 100 mg/kg; for Ulcer index: total lesion length, control 17.7 ± 2.3
Protocol: Aspirin-induced ulcer: Groups of ten male Donryu strain rats each weighing 220 to 230 g were deprived of food for 24 hours. The pylorus of each rat was ligated under ether anethesia according to the method of S. Okabe et al [Jap. J. Pharmac. 24, 357-361 (1974)]. After the pylorus ligation, aspirin (100 mg/kg) was administered orally to each rat. Seven hours after the administration, each of the animals was sacrificed under ether anesthesia to remove its stomach. After collection of the gastric juice and treatment with a 1% formalin solution, the length (mm) of each lesion formed in the glandular portion was measured. The total length (mm) of all the lesions of each rat was indicated as an ulcer index. Test medicine samples were given orally immediately after the pylorus ligation.

[4] = 1,000 mg/kg P.O., first series (control 2.4 ± 0.7)
[5] = 1,000 mg/kg P.O., second series (control 2.9 ± 0.4)
[6] = 2,000 mg/kg P.O., second series (control 2.9 ± 0.4)

| Compound | % Inhibition (Shay's ulcer in rats; [4]) [%] | Ulcer index (Shay's ulcer in rats; [4]) [mm^2] | % Inhibition [1] [%] | Ulcer index [1] [mm] | % Inhibition (Stress ulcer in rats; 300 mg/kg P.O.) [%] | Ulcer index (Stress ulcer in rats; 300 mg/kg P.O.) [mm] | % Inhibition (Stress ulcer in rats; 1,000 mg/kg P.O.) [%] | Ulcer index (Stress ulcer in rats; 1,000 mg/kg P.O.) [mm] | % Inhibition [2] | Ulcer index [2] [mm] | % Inhibition (Shay's ulcer in rats; [5]) [%] | Ulcer index (Shay's ulcer in rats; [5]) [mm^2] | % Inhibition [3] [%] | Ulcer index [3] [mm] | % Inhibition (Shay's ulcer in rats; [6]) [%] | Ulcer index (Shay's ulcer in rats; [6]) [mm^2] |
| --- | --- | --- | --- | --- | --- | --- | --- | --- | --- | --- | --- | --- | --- | --- | --- | --- |
| NCCC(=O)N[C@@H](Cc1cnc[nH]1)C(=O)O [L-Carnosine, L-carnosine] | 12.5 | 2.1 ± 0.7 | 28.2 | 17.3 ± 3.2 | 6.6 | 14.2 ± 3.7 | 29.6 | 10.7 ± 2.2 | ~ 0% | 17.3 ± 3.0 | – | – | – | – | – | – |
| N-acetyl-L-carnosine aluminum salt [B] | – | – | – | – | – | – | – | – | – | – | 79.3 | 0.6 ± 0.8 | – | – | – | – |
| aluminum sucrose sulfate | 71.0 | 0.7 ± 0.8 | 40.2 | 14.4 ± 1.5 | – | – | 56.7 | 6.5 ± 6.0 | 52.1% | 7.8 ± 3.0 | 72.4 | 0.8 ± 0.6 | 79.1 | 3.7 ± 2.1 | – | – |
| CC(=O)N[C@@H](CCC(N)=O)C(=O)O.[Al] [N-Acetyl-L-glutamine aluminum, N-acetyl-L-glutamine aluminum] | – | – | – | – | – | – | – | – | – | – | – | – | – | – | 69.0 | 0.9 ± 0.7 |
| NC(=O)CC[C@H](N)C(=O)O [L-Glutamine, L-glutamine] | 8.3 | 2.2 ± 0.8 | – | – | – | – | – | – | 41.8% | 9.5 ± 4.1 | – | – | 66.1 | 6.0 ± 2.2 | – | – |
| N-acetylcarnosine aluminum salt | 80.4 | 0.47 ± 0.4 | 61.0 | 9.4 ± 2.0 | 46.7 | 8.1 ± 2.9 | 70.4 | 4.5 ± 2.4 | 63.2% | 6.0 ± 2.4 | – | – | 96.0 | 0.7 ± 0.6 | – | – |

From US4339378A, “N-Acylcarnosine aluminum salts” (Nippon Chemiphar Co., Ltd., priority 1979, dated 1982)
